Values quoted from earlier work in patent publication US6444675B2, “4-alkyl and 4-cycloalkyl derivatives of dihydropyridine NPY antagonists” (Bristol-Myers Squibb Company, priority 2000, dated 2002).
Blank lines part the entries; values can stand above or below the compound they belong to.

How the values were obtained:
[1] = system: NPY-induced contractions in guinea pig basilar artery
[2] = biological target: T1, I-125 labeled NPY and PYY in human neuroblastoma cells (Homo sapiens, UniProt P25929)
T1 construct: displacing I-125 labeled NPY and PYY in human neuroblastoma cells; endogenous receptor
T1 sequence (P25929 1-384): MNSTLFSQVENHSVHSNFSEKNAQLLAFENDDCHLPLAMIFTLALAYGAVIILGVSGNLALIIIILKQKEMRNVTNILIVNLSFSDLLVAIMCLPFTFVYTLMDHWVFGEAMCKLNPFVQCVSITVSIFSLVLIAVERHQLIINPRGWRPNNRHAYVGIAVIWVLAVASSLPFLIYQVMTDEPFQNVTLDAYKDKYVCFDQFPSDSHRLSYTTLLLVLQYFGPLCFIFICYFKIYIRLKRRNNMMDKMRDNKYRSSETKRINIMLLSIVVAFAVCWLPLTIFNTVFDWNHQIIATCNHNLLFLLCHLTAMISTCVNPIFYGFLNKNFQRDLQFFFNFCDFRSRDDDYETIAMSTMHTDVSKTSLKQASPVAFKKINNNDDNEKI

[3] = system: NPY-related increases in diastolic blood pressure; settings: anesthetized guinea pig model
[4] = biological target: T2, I-125 Bolton-Hunter labeled NPY in human neuroblastoma cells (SK-N-MC) (Homo sapiens, UniProt P25929)
T2 construct: displaces I-125 Bolton-Hunter labeled NPY in human neuroblastoma cells (SK-N-MC); host or cells: SK-N-MC human neuroblastoma cells (endogenous receptor)
T2 sequence (P25929 1-384): T1 sequence (P25929 1-384)

[5] = system: NPY-induced increase in intracellular Ca++ in SK-N-MC cells
[6] = system: NPY-induced pressor response; settings: pithed rat

SMILES: O=P(O)(O)OC1[C@H](OP(=O)(O)O)[C@H](O)C(O)[C@H](O)[C@H]1OP(=O)(O)O (stereo partly drawn) [D-Myo-inositol-1,2,6-triphosphate]
antagonism of NPY-induced contractions [1]: potent but non-competitive antagonist

displacement of I-125 labeled NPY and PYY [2]: displacing
SMILES: CN(C)CC1CCC(CN=C(N)c2ccc(C[C@@H](NC(=O)[C@@H](Cc3ccccc3)NS(=O)(=O)c3ccc4ccccc4c3)C(=O)N3CCCC3)cc2)CC1 (stereo partly drawn) [SR 120819A]
antagonism of NPY-related increases in diastolic blood pressure [3]: antagonized

displacement of I-125 Bolton-Hunter labeled NPY [4]: displaces
SMILES: NC(N)=NCCC[C@@H](NC(=O)C(c1ccccc1)c1ccccc1)C(=O)NCc1ccc(O)cc1 [BIBP 3226]
antagonism of NPY-induced increase in intracellular Ca++ [5]: antagonized
antagonism of NPY-induced pressor response [6]: antagonizing
